# Measurements: US7608716B2, “Pyrazolonaphthyridine derivative” (Aska Pharmaceutical Co., Ltd., priority 2002, dated 2009)
# Assays:
# [1] = test system: lung neutrophil infiltration; experiment: Inhibition of lung neutrophil infiltration (LPS inhalation, BALF); type: in vivo, Hartley guinea-pigs; details: Cavia porcellus, guinea-pigs, oral, 1 hour before LPS inhalation, BALF neutrophils at 24 hours, read-out: Inhibition of Lung Neutrophil Infiltration ED50: mg/kg orally
# Description: Hartley guinea-pigs were orally received a suspension of test compounds at a dose of 0.03 to 3 mg/2 mL/kg. One hour later, the animals were received 0.1 mg/mL lipopolylsaccharide (LPS) in a physiological saline via an inhalational route with a nebulizer for 30 minutes. Twenty-four hours after the LPS inhalation, BALF samples were collected, and neutrophils were counted.
# [2] = test system: Beagle dogs; experiment: Emetic action on dogs; type: in vivo; details: oral, 1 mg/kg
# Description: Beagle dogs received a suspension of each test compound in 0.5% CMC-Na solution orally at a dose of 1 mg/2 mL/kg.
# [3] = molecular target: T1, CYP2D6 (Homo sapiens, UniProt P10635); experiment: Inhibition of drug-metabolizing enzyme CYP2D6 (CYP2D6/AMMC kit); type: in vitro ADME; details: CYP2D6-expressing microsomes, AMMC substrate, 37° C., 30 minutes; read-out: Inhibition of Drug-Metabolizing Enzymes (IC50; μM) CYP2D6
# T1 construct: purchased BD Biosciences, NJ, USA; host or cells: CYP2D6-expressing system microsomes
# T1 sequence (P10635 whole entry): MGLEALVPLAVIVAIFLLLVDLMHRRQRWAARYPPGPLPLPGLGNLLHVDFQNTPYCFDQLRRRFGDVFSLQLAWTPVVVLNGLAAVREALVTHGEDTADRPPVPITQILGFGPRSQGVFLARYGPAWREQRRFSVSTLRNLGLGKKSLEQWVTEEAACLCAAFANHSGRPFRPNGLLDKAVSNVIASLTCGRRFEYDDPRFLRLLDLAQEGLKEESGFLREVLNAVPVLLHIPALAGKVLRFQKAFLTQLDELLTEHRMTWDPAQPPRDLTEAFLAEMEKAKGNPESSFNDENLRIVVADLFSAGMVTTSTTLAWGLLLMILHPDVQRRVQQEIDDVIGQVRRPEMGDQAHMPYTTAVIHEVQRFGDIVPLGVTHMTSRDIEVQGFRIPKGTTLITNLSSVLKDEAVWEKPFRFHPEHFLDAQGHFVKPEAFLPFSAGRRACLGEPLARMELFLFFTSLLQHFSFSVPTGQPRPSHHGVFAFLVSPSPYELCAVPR
# Description: (§1) The inhibitory effect on CYP2D6 and CYP3A4 was determined using High Throughput Inhibitor Screening Kits: CYP2D6/AMMC and CYP3A4/BFC (both from BD Biosciences, NJ, USA). Briefly, each of NADPH regenerating systems, cofactors, and test compounds was dispensed into 96-well plates, followed by addition of each of fluorescent substrates, AMMC (CYP2D6) or BFC (CYP3A4). To each well were added CYP2D6-expressing system microsomes or CYP3A4-expressing system microsomes, and the plates were incubated at 37° C. for 30 minutes, and then read for fluorescent signals (CYP2D6: ex=390 nm, em=460 nm; CYP3A4: ex=409 nm, em=538 nm wherein excitation wavelength: ex and emission wavelength: em). Thus, each inhibitory efficacy on enzymes CYP2D6 and CYP3A4 was determined. Roflumilast was used for the reference compound in this assay.
# [4] = molecular target: T2, CYP3A4 (Homo sapiens, UniProt P08684); experiment: Inhibition of drug-metabolizing enzyme CYP3A4 (CYP3A4/BFC kit); type: in vitro ADME; details: CYP3A4-expressing microsomes, BFC substrate, 37° C., 30 minutes; read-out: Inhibition of Drug-Metabolizing Enzymes (IC50; μM) CYP3A4
# T2 construct: purchased BD Biosciences, NJ, USA; host or cells: CYP3A4-expressing system microsomes
# T2 sequence (P08684 whole entry): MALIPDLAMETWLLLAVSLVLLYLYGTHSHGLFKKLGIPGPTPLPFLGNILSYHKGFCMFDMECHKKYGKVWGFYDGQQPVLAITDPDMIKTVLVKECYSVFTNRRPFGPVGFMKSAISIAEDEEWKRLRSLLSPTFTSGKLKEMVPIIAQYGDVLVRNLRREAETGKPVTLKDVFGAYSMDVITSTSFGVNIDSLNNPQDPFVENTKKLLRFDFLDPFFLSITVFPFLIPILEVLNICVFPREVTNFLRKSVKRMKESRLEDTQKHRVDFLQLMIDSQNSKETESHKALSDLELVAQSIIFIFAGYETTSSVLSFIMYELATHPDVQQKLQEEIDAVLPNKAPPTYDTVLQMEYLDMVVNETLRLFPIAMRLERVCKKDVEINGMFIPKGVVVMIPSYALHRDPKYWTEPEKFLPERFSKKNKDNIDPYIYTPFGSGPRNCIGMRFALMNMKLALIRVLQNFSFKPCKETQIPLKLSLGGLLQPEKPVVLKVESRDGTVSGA
# Description: as §1
# [5] = test system: ICR mice; experiment: Toxicology study (1-week administration to mice); type: in vivo; details: oral, 100 or 300 mg/10 ml/kg, one week
# Description: The Compound of the present invention (Example No. 9) was administered orally to ICR mice (5 animals per group) as a test compound. […] The test compound was suspended in 0.5% CMC-Na solution and given orally to the animal at a dose of 100 or 300 mg/10 ml/kg in a forced manner.
Structure (SMILES),ED50 [1] [mg/kg],Occurrence of emesis [2],IC50 [3] [µM],IC50 [4] [µM],Abnormality in other parameters [5],Body weight gain [5],Mortality [5]
"O=c1c2c(Cc3ccc(F)cc3)n[nH]c2c2cccnc2n1-c1ccccc1 [Example No. 33, 3-(4-fluorobenzyl)-5-phenyl-1H-pyrazolo[4,3-c][1,8]naphthyridin-4 (5H)-one]",0.09,no observation for emetic actions,> 10,6.2,,,
"O=c1c2c(Cc3ccccc3)n[nH]c2c2cccnc2n1-c1ccccc1 [Example No. 9, 3-benzyl-5-phenyl-1H-pyrazolo[4,3-c][1,8]naphthyridin-4 (5H)-one]",0.12,no observation for emetic actions,> 10,8.5,no abnormality was observed,No reduction of body weight gains was observed,None of the animals were died
